The values below come from article PMC12381739, “Druglike Molecular Degraders of the Oncogenic RNA-Binding Protein HuR” (JACS Au, 2025).

In one test the test system is MCF-7 spheroids. Nature of the test: 3D spheroid growth model, MCF-7. It is filed as cell-based, human. Here is the method: (§1) MDA-MB-231 and MCF-7 breast cancer cells were cultured in standard tissue culture plates using RPMI or DMEM media supplemented with 10% fetal bovine serum (FBS) and 1% penicillin–streptomycin until they reached approximately 80% confluency. Cells were washed with PBS and dissociated using 0.25% Trypsin-EDTA, followed by neutralization with complete medium. Viability was assessed via trypan blue exclusion, ensuring >90% viable cells. For spheroid formation, cells were seeded into ultralow attachment 96-well plates at a density of 5000 cells/well in 200 μL of complete medium. Plates were centrifuged at 1000 rpm for 5 min to promote aggregation and incubated at 37 °C in a humidified 5% CO2 atmosphere. Spheroid formation was monitored daily using an inverted microscope. Media exchanges or treatment additions were performed by carefully aspirating 100 μL of medium from each well and replacing it with an equal volume of fresh or treatment-containing medium. Differences in spheroid characteristics between the two cell lines were noted: MCF-7 cells, being epithelial and E-cadherin positive, formed compact, uniform spheroids at lower seeding densities (1000–5000 cells/well) over 3–5 days, whereas MDA-MB-231 cells, which lack E-cadherin, required higher densities (5000–10,000 cells/well) and formed looser aggregates typically within 2–4 days. All experiments were performed in duplicates. Surface area was calculated using Image View’s multipoint connection function.

A further test relates to MDA-MB-231 spheroids. Briefly: 3D spheroid growth model, MDA-MB-231. Format: cell-based, human. On the procedure:
as §1

The target in the next test is HuR (Homo sapiens, UniProt Q15717). Nature of the test: HuR protein expression by western blot in MCF-7 cells. Format: cell-based. On the set-up: endogenous in cells; host or cells: MCF-7. The source says: Michigan Cancer Foundation-7 (MCF-7) cells were chosen due to their documented overexpression of HuR, which has been linked to cancer pathogenicity in this specific cell line. , Consequently, reducing HuR expression to physiologically normal levels is considered a potential strategy for novel anticancer therapies targeting breast cancers associated with HuR overexpression.
Total protein was extracted using RIPA cell lysis buffer (BioPrep) containing a protease inhibitor, and protein concentration was measured using the BCA protein assay (Sigma-Aldrich) according to the manufacturer’s protocol. Approximately 30 μg of total protein were resolved on a 12% SDS-acrylamide gel and transferred to a PVDF membrane (Immobilon FL transfer membrane; Merck). The membrane was washed with 1× Tris-buffered saline (TBS) containing 0.1% (v/v) Tween-20 (TBST; Tris-base, pH 7.6, NaCl, and Tween-20) and blocked in 1× TBST containing 5% (w/v) BSA for 2 h at room temperature. The membrane was then incubated overnight at 4 °C with primary antibodies: a 1:1000 dilution of rabbit anti-ELAVL1/HuR (Cell Signaling Technology, #12582), a 1:1000 dilution of mouse anti-Bcl2 (Cell Signaling Technology, #15071), or a 1:10,000 dilution of rabbit anti-Vinculin (Cell Signaling Technology, #13901) in 1× TBST containing 5% (w/v) BSA. Following primary antibody incubation, the membrane was washed with 1× TBST and incubated with a 1:10,000 dilution of the appropriate horseradish-peroxidase-conjugated secondary antibody (antirabbit IgG: Cell Signaling, #7074 or antimouse IgG: Cell Signaling, #7076) at room temperature for 2 h. After washing three times with 1X TBST (10 min per wash), protein bands were visualized using Clear Band ECL Substrate (Gene Bio-Application) on the Azure C300 Imaging System. The fold change in the expression of the target proteins (HuR or Bcl2) was calculated by normalizing the band intensity to the Vinculin band intensity using ImageJ.

The next test has as its system Bcl2 and FOXQ1 mRNA. Briefly: mRNA RT-qPCR of Bcl2 and FOXQ1 in MCF-7 cells. It is filed as cell-based, human. Conditions: MCF-7, any of the concentrations evaluated. On the procedure:
MCF-7 cells were seeded into 12-well plates (∼150,000 cells per well) at 60–70% confluency incubated for 12 h. The cells were then treated with different synthesized compounds at the indicated concentrations or with vehicle control for 24 and 48 h. After treatment, total RNA was extracted using the QuickRNA Miniprep Kit (Zymo Research) according to the manufacturer’s protocol, including DNase I treatment. Reverse transcription was performed on 1 μg of total RNA using the qScript cDNA Synthesis Kit (Quantabio) following the manufacturer’s instructions. Approximately 30 ng of cDNA were used for each qPCR reaction, which was carried out using the Luna Universal qPCR Master Mix (New England BioLabs, cat# E3010G) on a CFX Opus 384 Real-Time PCR System. Relative expression levels of Bcl-2 and FOXQ1 were calculated by normalizing to GAPDH expression using the ΔΔCt method.
In general terms: Quantitative PCR measures a nucleic acid by following its amplification.

In a further test the target is T1, HuR RRM1/2 (Homo sapiens, UniProt Q15717).
T1 construct: 20 nM of the 5′-FAM RNA probe and 500 nM of HuR RRM1/2
Nature of the test: Fluorescence polarization (FP) displacement assay, 5′ FAM-labeled RNA probe from HuR. Conditions: displacement of 5′-FAM RNA probe UAUUUAUUUA (20 nM) from 500 nM HuR RRM1/2; read-out: Binding affinity towards HuR in FP assay (Kd). On the procedure: Following the synthesis, our initial aim was to ensure that the new derivatives retained their affinity for HuR’s RNA-binding pocket. Thus, a binding evaluation assay was conducted. As previously reported, the RNA-binding pocket of HuR specifically recognizes the UTR sequences of mRNAs, with […] identified as a common binding motif. To evaluate the binding of each degrader, we conducted a fluorescence-based assay utilizing a 5-carboxyfluorescein (5′ FAM)-labeled reporter. This fluorescence polarization (FP) assay is based on the displacement of the 5′ FAM-labeled mRNA from HuR’s RNA-binding pocket, which provides insight into both the binding affinity of the degrader and its capacity to disrupt the HuR-mRNA interaction, thereby serving as a means of validating target engagement. When the 5′ FAM-RNA probe is bound to HuR, it forms a binary complex, resulting in slower rotational movement and a consequently high FP signal. However, when either molecule displaces the 5′ FAM-labeled RNA, the probe is released into the solution, where it undergoes rapid rotation, leading to a significant reduction in the FP signal (Figure S3). This decrease in FP serves as a quantitative measure of the degrader’s ability to compete with mRNA for HuR binding. […] As mentioned above, we synthesized a series of HuR ligand derivatives featuring indole and benzothiophene cores, along with ester and carboxylic acid functional groups.
As previously reported, the sequence of the fluorescently labeled (5′-FAM) RNA probe is […]. The assays were performed in PBS buffer (20 mM sodium phosphate, 150 mM NaCl, 1 mM dithiothreitol, 0.05% PLURONIC-127, 15% DMSO) at 293 K. Fluorescence was measured using the Synergy H1 Hybrid Multi-Mode Microplate Reader (Biotek, Agilent) with excitation and emission wavelengths set to 485 and 528 nm, respectively. Each well of a 384-well plate contained 20 nM of the 5′-FAM RNA probe and 500 nM of HuR RRM1/2. Compounds were tested at eight concentrations (0.1 nM–100 μM), with compound 10 serving as a positive control and PBS as the negative control. The protein-mRNA mixture was incubated for 1.5 h to allow for binding interactions. After this incubation, the compounds were added, and the mixture was incubated for an additional hour. The FP emission of the resulting HuR-compound complex was then recorded. The percent inhibition of binding was calculated by comparing the FP values of experimental conditions to the PBS control. The FP value corresponding to the HuR-RNA complex in the presence of DMSO was used as the 100% complexation reference, while the FP value of the labeled RNA alone was set as 0% complexation. The dissociation constant (K d) for the compound-HuR binding interaction was determined by fitting the dose–response curve to specific binding models using Prism 10.2.2. All experiments were performed in triplicate.
On the technique in general: Polarisation of emitted light reports the rotation of a fluorescent probe.

The target of a further test is T2, GFP-HuR (Homo sapiens, UniProt Q15717).
T2 construct: host or cells: HEK-293
Briefly: GFP-HuR reporter assay. The following applies: HEK 293 cells, 10 μM, 24 h. It is filed as cell-based. Background: Reporter assays use an easily measured gene product as a stand-in for the process of interest.

T1 sequence (Q15717 18-186 limits assumed): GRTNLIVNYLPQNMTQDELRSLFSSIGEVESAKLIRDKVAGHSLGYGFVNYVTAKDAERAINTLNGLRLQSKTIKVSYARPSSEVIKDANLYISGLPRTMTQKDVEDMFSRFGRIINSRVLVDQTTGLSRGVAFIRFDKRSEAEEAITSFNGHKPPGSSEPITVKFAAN
HuR, sequence (Q15717 whole entry): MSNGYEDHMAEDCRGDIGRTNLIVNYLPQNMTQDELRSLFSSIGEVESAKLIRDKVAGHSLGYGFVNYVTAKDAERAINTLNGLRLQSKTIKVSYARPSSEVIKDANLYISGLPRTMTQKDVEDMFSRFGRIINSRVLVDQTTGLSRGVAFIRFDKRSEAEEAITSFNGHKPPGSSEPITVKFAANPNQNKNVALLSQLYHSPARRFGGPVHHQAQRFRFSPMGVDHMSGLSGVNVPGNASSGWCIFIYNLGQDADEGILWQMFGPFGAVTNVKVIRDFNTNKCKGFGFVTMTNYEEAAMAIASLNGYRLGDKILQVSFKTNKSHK
T2 sequence (Q15717 whole entry): as above
Protocol for GFP-HuR: To assess the effects of the HuR degraders in cells in a high-throughput fashion, a GFP-HuR reporter assay was utilized. In this assay, HuR was fused with green fluorescent protein (GFP), facilitating the monitoring of its expression and stability through fluorescence intensity (Figure A). A decrease in the GFP signal indicates HuR degradation.
HEK-293 cells were cultured in 100 mm diameter plates to approximately 70% confluency and transfected with 15 μg of GFP-HuR (ELAVL1) reporter plasmid (Addgene #121162) in a 1:2 ratio with the PEI transfection reagent (Med Chem Express, HY-K2014) at a concentration of 1 mg/mL, following the manufacturer’s recommended protocol. After 6 h of transfection, the cells were reseeded into 96-well plates. […] Fluorescence measurements were taken using the Synergy H1 Hybrid Multi-Mode Microplate Reader (Biotek, Agilent) with excitation and emission wavelengths set to 479 and 520 nm, respectively, according to the manufacturer’s instructions. All experiments were performed in triplicate.

Regarding `CCOC(=O)c1cc2cc(N)ccc2[nH]1` [Binder 1], the results for the “day at which a decrease in spheroid surface area was first observed” value in the test on MCF-7 spheroids and in the test on MDA-MB-231 spheroids were 14 days and 9 days, respectively. The spheroid growth result with MCF-7 spheroids (10 nM) and in the test with MDA-MB-231 spheroids (10 nM) was “no significant impact on spheroid growth” in each case. Besides, the “HuR expression after treatment with HuR ligands alone” value at HuR (MCF-7, Binder 1 1 µM 24 h, Binder 2 10 µM 48 h (Figure S8)) was “No significant decrease in HuR expression”. In the test with Bcl2 and FOXQ1 mRNA, the “RNA levels of Bcl2 and FOXQ1 with HuR ligands” value is “no effect was observed”.
On to `CCOC(=O)c1cc2cc(NC(=O)/C=C/C(=O)c3ccc(OC)cc3)ccc2s1` [MG-HuR1], for which the Kd (in general, the equilibrium constant for the complex coming apart) at HuR RRM1/2 was 1080 nM.
Same read-out and setting: under `CCOC(=O)c1cc2cc(NC(=O)/C=C/c3ccc(C(F)(F)F)cc3)ccc2[nH]1` [MG-HuR3] stands 9.3 nM; under `CCOC(=O)c1cc2cc(NC(=O)/C=C/c3ccc(C(F)(F)F)cc3)ccc2s1` [MG-HuR4], 1490 nM.
As to `O=C(/C=C/c1ccc(C(F)(F)F)cc1)Nc1ccc2sc(C(=O)O)cc2c1` [MG-HuR5], the GFP-HuR fluorescence intensity result at GFP-HuR is on record as “significant reduction in fluorescence intensity”. For the same compound, the Kd on HuR RRM1/2 was 818 nM.
As for `O=C1CCC(N2C(=O)c3cccc(NCc4cn(-c5ccc6[nH]c(C(=O)O)cc6c5)nn4)c3C2=O)C(=O)N1` (centres unmarked) [PRO-HuR1], the Kd at HuR RRM1/2 turned out to be 9.5 nM.
On the same count and under the same terms, then `O=C1CCC(N2C(=O)c3cccc(NCCc4cn(CCCC(=O)Nc5ccc6[nH]c(C(=O)O)cc6c5)nn4)c3C2=O)C(=O)N1` (centres unmarked) [PRO-HuR2], with 10.1 nM.
On to `CCOC(=O)c1cc2cc(-n3cc(CNc4cccc5c4C(=O)N(C4CCC(=O)NC4=O)C5=O)nn3)ccc2s1` (centres unmarked) [PRO-HuR4], for which the “time-dependent response of HuR degradation” value on HuR (MCF-7, 10 μM) is listed as “did not”. Moreover, at HuR (MCF-7, 10 μM, 24 h), the HuR degradation ability result is reported as “higher degradation efficiency”. On HuR RRM1/2, the Kd came to 10.6 nM.
Turning to `CCOC(=O)c1cc2cc(NC(=O)C3CCN(c4cccc5c4C(=O)N(C4CCC(=O)NC4=O)C5=O)CC3)ccc2s1` (centres unmarked) [PRO-HuR5], the Kd on HuR RRM1/2 worked out at 6.5 nM.
Turning to `CCOC(=O)c1cc2cc(NC(=O)CCC(=O)N3CCN(c4cccc5c4C(=O)N(C4CCC(=O)NC4=O)C5=O)CC3)ccc2s1` (centres unmarked) [PRO-HuR6], the Kd at HuR RRM1/2 came out at 9390 nM.
The same measure, in the same setting: then `CCOC(=O)c1cc2cc(-n3cc(-c4ccc(C(=O)NCCNc5cccc6c5C(=O)N(C5CCC(=O)NC5=O)C6=O)cc4)nn3)ccc2s1` (centres unmarked) [PRO-HuR7], with 45.8 nM; and `CCOC(=O)c1cc2cc(NC(=O)C3CN(c4cccc5c4C(=O)N(C4CCC(=O)NC4=O)C5=O)C3)ccc2s1` (centres unmarked) [PRO-HuR8], with 6430 nM.
